In this experiment the test system is SARS-CoV-2. In words: SARS-CoV-2 antiviral assay (dose-response, automated confocal imaging of infected cells). It is filed as cell-based, severe acute respiratory syndrome coronavirus-2. As to conditions: SARS-CoV-2, Vero81-derived F1G-red cells, MOI 0.2, 16 h, compounds at 1.56-25 µM. As to the method: Dose-response experiments were conducted to determine half-maximal inhibitory concentration, IC50 of the compounds on severe acute respiratory syndrome coronavirus-2 (SARS-CoV-2). Vero81-derived F1G-red cells seeded in 384-well plate were inoculated with SARS-CoV-2 at a multiplicity of infection (MOI) of 0.2, at 37°C, in the presence of each compound at 1.56, 3.13, 6.25, 12.5 and 25 µM. Images were acquired 16 h later using an InCell-6500 automated confocal microscope (Cytiva, Marlborough, United States). Infected cells and total cell numbers were quantified as previously described. Percentage of infection relative to the DMSO controls were obtained and IC50 were calculated using Prism 10 software (Graph Pad Inc., La Jolla, CA, USA). […] Table 2. IC50 of pure and synthetic compounds on SARS-CoV-2

The mark [1] stands for this setting: Severe acute respiratory syndrome coronavirus 2, 16 h.

For 14 compounds, IC50 results are on record in patent EP4556004A1 (priority 2023, dated 2025).

The term IC50 denotes the concentration that gives 50% inhibition. Read a high IC50 as a need for much substance.

On to `CCC(C)C(=O)C1=C(O)C(CC=C(C)C)=C(O)C(CC=C(C)C)(CC=C(C)C)C1=O` (centres unmarked) [AH8-F2, 3,5-dihydroxy-4,6,6-tris(3-methylbut-2-en-1-yl)-2-(2-methylbutanoyl)cyclohexa-2,4-dien-1-one], for which the IC50 under setting [1] was less than 25 µM.

Under setting [1], `CCCC(=O)C1=C(O)C(CC=C(C)C)=C(O)C(CC=C(C)C)(CC=C(C)C)C1=O` [AH10-F2, 2-butyryl-3,5-dihydroxy-4,6,6-tris(3-methylbut-2-en-1-yl)cyclohexa-2,4-dien-1-one] came in with an IC50 of less than 14 µM.

`CC(C)=CCC1=C(O)C(CC=C(C)C)(CC=C(C)C)C(=O)C(C(=O)C(C)C)=C1O` [AH15-F1, 3,5-dihydroxy-2-isobutyryl-4,6,6-tris(3-methylbut-2-en-1-yl)cyclohexa-2,4-dien-1-one] came in with an IC50 under setting [1] of less than 14 µM.

Turning to `CC(=O)C1=C(O)C(CC=C(C)C)=C(O)C(CC=C(C)C)(CC=C(C)C)C1=O` [AH16-F2, 2-acetyl-3,5-dihydroxy-4,6,6-tris(3-methylbut-2-en-1-yl)cyclohexa-2,4-dien-1-one], the IC50 under setting [1] was greater than 25 µM.

The compound `CCC(=O)C1=C(O)C(CC=C(C)C)=C(O)C(CC=C(C)C)(CC=C(C)C)C1=O` [AH17-F2, 3,5-dihydroxy-4,6,6-tris(3-methylbut-2-en-1-yl)-2-propionylcyclohexa-2,4-dien-1-one] had an IC50 under setting [1] greater than 25 µM.

In turn, `CCCCC(=O)C1=C(O)C(CC=C(C)C)=C(O)C(CC=C(C)C)(CC=C(C)C)C1=O` [AH18-F4, 3,5-dihydroxy-4,6,6-tris(3-methylbut-2-en-1-yl)-2-pentanoylcyclohexa-2,4-dien-1-one] registered an IC50 under setting [1] of less than 14 µM.

With `CC(C)=CCC1=C(O)C(CC=C(C)C)(CC=C(C)C)C(=O)C(C(=O)CCC(C)C)=C1O` [AH39-F1, 3,5-dihydroxy-4,6,6-tris(3-methylbut-2-en-1-yl)-2-(4-methylpentanoyl)cyclohexa-2,4-dien-1-one], under setting [1], the half-inhibitory concentration (IC50) is less than 25 µM.

For the compound `CCC(C)CC(=O)C1=C(O)C(CC=C(C)C)=C(O)C(CC=C(C)C)(CC=C(C)C)C1=O` (centres unmarked) [AH40-F1, 3,5-dihydroxy-4,6,6-tris(3-methylbut-2-en-1-yl)-2-(3-methylpentanoyl)cyclohexa-2,4-dien-1-one], the IC50 under setting [1] was greater than 25 µM.

For the compound `CC(C)=CCC1=C(O)C(CC=C(C)C)(CC=C(C)C)C(=O)C(C(=O)C=Cc2ccccc2)=C1O` [AH41-F1, 2-cinnamoyl-3,5-dihydroxy-4,6,6-tris(3-methylbut-2-en-1-yl)cyclohexa-2,4-dien-1-one], the IC50 under setting [1] is less than 25 µM.

Turning to `CC(C)=CCc1c(O)cc(O)c(C(=O)C(C)C)c1O` [AH62-F2, 2-methyl-1-(2,4,6-trihydroxy-3-(3-methylbut-2-en-1-yl)phenyl)propan-1-one], the IC50 under setting [1] is less than 7 µM.

On to `CC(C)=CCC1(CC=C(C)C)C(=O)C(C(=O)C(C)C)=C(O)C(C(=O)C(C)C)=C1O` [AH66-F1, 1,1'-(2,4-dihydroxy-5,5-bis(3-methylbut-2-en-1-yl)-6-oxocyclohexa-1,3-diene-1,3-diyl)bis(2-methylpropan-1-one)], for which the half-inhibitory concentration (IC50) under setting [1] was less than 25 µM.

As for `CC(C)=CCC1=C(O)C(C(=O)C(C)C)=C(O)C(CC=C(C)C)(CC=C(C)C)C1=O` [Colupulone, Co-lupulone], the IC50 was less than 7 µM.

In turn, `CC(C)=CCC1=C(O)C(CC=C(C)C)(CC=C(C)C)C(=O)C(C(=O)C(C)C)=C1O` [LB.70-F2, 3,5-dihydroxy-4,6,6-tris(3-methylbut-2-en-1-yl)-2-(2-methylpropanoyl)cyclo-hexa-2,4-dien-1-one] gave an IC50 of less than 7 µM.

In turn, `CC(C)=CCC1=C(O)C(C(=O)CC(C)C)=C(O)C(CC=C(C)C)(CC=C(C)C)C1=O` [Lupulone] displayed a 50% inhibitory concentration (IC50) under setting [1] of less than 7 µM.
